Experiments:
[1] = molecular target: T1, TM4SF5 and SLAMF7 (Homo sapiens, UniProt O14894); test: Streptavidin pulldown: binding between TM4SF5 and SLAMF7; type: cell-based
T1 construct: expressed in transfected cells; host or cells: SNU761 human hepatocellular carcinoma cells
T1 sequence (O14894 1-197): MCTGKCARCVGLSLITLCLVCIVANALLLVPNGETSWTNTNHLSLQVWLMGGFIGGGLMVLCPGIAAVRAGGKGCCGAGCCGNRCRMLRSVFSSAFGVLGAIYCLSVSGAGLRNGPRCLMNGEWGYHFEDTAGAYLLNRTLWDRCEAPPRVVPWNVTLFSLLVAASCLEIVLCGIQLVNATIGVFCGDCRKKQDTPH
Procedure: Cells were cultured to ~60% density in a cell incubator at 37°C and 5% CO2, and then transfected using PEI and cultured in a cell incubator at 37°C for two days. After cultivation, cell extracts were obtained by the method described above. After precipitating a desired protein from the cell extracts using an immunoprecipitation method, the binding proteins were identified by the Western blot technique described above. Specifically, cells cultured in a 100 mm cell culture dish for two days were washed twice with PBS, and protease inhibitor cocktails (GenDepot, USA) were added to 500 µl of immunoprecipitation lysis buffer (0.5% Triton X-100 or Brij 58, 40 mM HEPES, 150 mM NaCl, 1 mM EDTA, pH 7.4), followed by treatment at 4°C for 15 minutes. After collecting the cells, centrifugation was performed at 12,000x g at 4°C for 15 minutes, and the supernatant was transferred to a new microcentrifuge tube to obtain a cell extract. Proteins therein were quantified using a BCA reagent (Thermo Scientifics, USA). An electrophoresis sample was prepared by adding 4x laemmli sample buffer to a portion of the quantified sample and boiling at 100°C for 5 minutes. For immunoprecipitation, Streptavidin Agarose Resin (Thermo Fisher Scientific) or anti-HA antibody-coated Sepharose beads were added in proportion to the quantified protein amount, followed by rotation at 4°C for 4 hours, and then centrifugation was performed at 7,000x g at 4°C for 5 minutes and the supernatant was discarded. […] (f) After treating NK92-EV or NK92-TM4SF5 cells with DMSO or drugs ST-2-001 (1 nM), ST-3-005 (10 nM or 1 µM), ST-5-001, or ST-5-002 (100 nM or 1 µM) for 24 hours, the expression of SLAMF7 expressed on the cell surface was analyzed through immunostaining using flow cytometry. The expression level of SLAMF7 was confirmed by adding a SLAMF7 antibody to bind with SLAMF7 and then measuring the fluorescence linked to the SLAMF7 antibody using flow cytometry. […]

[2] = molecular target: T2, TM4SF5 (Homo sapiens, UniProt O14894); test: 1,2-3H-Cholesterol binding to pulled-down TM4SF5; set-up: expressed in transfected cells; captured on streptavidin agarose; conditions: 1,2-3H-Cholesterol (50 µM); for binding of TM4SF5 to cholesterol: drug 2.5 µM, 1 hour (FIG. 19c); for IC50: Huh7KO Strep-TM4SF5 (FIG. 19e), read-out: concentration at which binding between TM4SF5 and cholesterol was reduced by 50%
T2 sequence (O14894 1-197): T1 sequence (O14894 1-197)
Procedure: (a) Expression vectors for a control vector, TM4SF1, TM4SF5 WT, and R113Q, C118/145A, H127A, and N138A mutants of TM4SF5 were injected into the HEK293FT cell line, which was confirmed not to express TM4SF5, and allowed to express for 48 hours. (b) Huh7KO cell lines, in which TM4SF5 was knocked out in Huh7, were stably infected with a retrovirus encoding pBabe-EV or pBabe-TM4SF5-HA. […] (d) Strep-EV, Strep-PD-L1 WT, and 3NQ (N192/200/219Q) and 4NQ (N35/192/200/219Q) N-glycosylation mutants were injected into Huh7 cells to be expressed. (e) Strep-EV and Strep-TM4SF5 expression vectors were injected into Huh7KO cells and allowed to express for 48 hours. (a-e) After obtaining cell extracts, TM4SF5-strep, TM4SF5-HA, or PD-L1-strep was pulled down with streptavidin agarose resin or anti-HA antibody from extracts containing 0.2, 0.25, or 1.0 mg of protein for each experimental condition. Each of the pulled-down beads was treated with ^14C-labelled ST-5-002 (10, 25, or various indicated concentrations, µM) for 1 hour in the presence or absence of 400 µM of cold ST-5-002 (a-b). Alternatively, they were treated with 1,2-^3H-Cholesterol (50 µM) alone or together with ST-3-001 (negative control compound), ST-5-001, or ST-5-002 (2.5 µM each) for 1 hour (c-e). For the experimental samples of each condition, radioactive isotope values were repeatedly measured using a TriCarb scintillation counter (PerkinElmer, Waltham, MA).

[3] = molecular target: T2, TM4SF5; test: TM4SF5 expression-dependent animal models (summary statement); type: in vivo; set-up: expressed in transfected cells; captured on streptavidin agarose
Description: In addition, the isoxazole compounds are capable of reversing both (i) an increase in PD-L1 expression and stabilization through direct binding mediated by TM4SF5 and (ii) induction of PD-1 expression in T cells, which suppresses T-cell activation and cancer cell killing functions.

[4] = SNU761 expressing TM4SF5-Strep and FLAG-SLAMF7, 24 hours, brij58 lysis (FIG. 15e-f)

SMILES | binding between TM4SF5 and SLAMF7 [1, 4] | binding of TM4SF5 to cholesterol [2] | binding between TM4SF5 and SLAMF7 ([1]; 2.5 µM, 24 hours, SNU761 (FIG. 13j)) | IC50 [2] [µM] | doses at which effects were exhibited [3] [mpk]
COc1cccc(-c2cc(-c3ccc(NC(C)=O)cc3)no2)c1 [ST-3-001, N-(4-(5-(3-methoxyphenyl)isoxazole-3-yl)phenyl)acetamide] | did not decrease but rather showed an increasing trend | not affected |  |  | 
CC(=O)Nc1ccc(-c2cc(-c3ccc(O)cc3)no2)cc1 [ST-5-001, N-(4-(3-(4-hydroxyphenyl)isoxazole-5-yl)phenyl)acetamide] |  | inhibited | inhibited | 6.15 | ≤ 2.5
Cc1ccc(C(=O)Nc2ccc(-c3cc(-c4ccc(O)cc4)no3)cc2)cc1 [ST-5-002, N-(4-(3-(4-hydroxyphenyl)isoxazole-5-yl)phenyl)-4-methylbenzamide] | decreased | inhibited |  | 0.787 | ≤ 2.5
